Measured values reported in US5010064A, “Inclusion complexes of dipyridamole with cyclodextrins” (Edmond Pharma s.r.l., priority 1987, dated 1991).

How the values were obtained:
[1] = in vivo; conditions: dog, plasma, po, 75 mg
Experimental: (§1) Studies have been carried out on Beagle dogs (male and female; body weight 10-11 kg) following an experimental scheme in "cross over".
(§2) The blood has been collected in the presence of eparine (10 U.I./ml) and the plasma, separated by centrifugation, has been immediately frozen and stored at -20° C. until extraction. After about 10-20 days of storage, 0.2 ml of plasma has been drawn from each sample and mixed for 15 seconds with 0.5 ml of NaOH 1N. Thereafter, 4 ml of terbutylmethylether have been added and the whole has been stirred for 1 minute. In order to separate the aqueous phase from the organic phase the whole has been centrifuged for 5 minutes. The organic phase has been then removed and dried to dryness under nitrogen stream. […] An excitation wave length of 285 nm has been chosen in connection with an emission filter of 470 nm.

[2] = test system: platelet aggregation (ADP-induced) in platelet rich plasma of rabbits; assay: platelet aggregation inhibiting activity ex vivo; format: in vivo, New Zealand rabbit
Experimental: The platelet rich plasma (PRP) has been separated by centrifugation for 10 minutes and has been suitable diluted to have always 250,000-300,000 platelet/mm^3 with plasma free of platelets (obtained from blood samples by further centrifugation for 10 minutes at 3200 rpm.
The platelet aggregation has been measured by the turbidimetric method under continuous stirring at 37° C., after having added ADP (Adenosine diphosphate to PRP (1.5 μg/ml).

[3] = pH higher than 5.5-6; cited from earlier work
[4] = dog, oral, 75 mg active ingredient; 0 min
Experimental: as §1, §2

[5] = cited from earlier work

With OCCN(CCO)c1nc(N2CCCCC2)c2nc(N(CCO)CCO)nc(N3CCCCC3)c2n1 [dipyridamole, 2,2',2",2"'-(4,8-dipiperidinopyrimido/5,4,d/-pyrimidine-2,6-diyldinitrilo)tetraethanol] the concentration at 10 min [1] was 8 ng/mL, the concentration at 20 min [1] was 24 ng/mL and the concentration at 0.5 h [1] was 784 ng/mL. The concentration at 0.75 h [1] was 1620 ng/mL, the concentration at 1 h [1] was 2840 ng/mL and the concentration at 1.5 h [1] was 3960 ng/mL. For the same molecule, the concentration at 2 h [1] was 4710 ng/mL, the concentration at 2.5 h [1] was 4730 ng/mL and the concentration at 3 h [1] was 2930 ng/mL. The concentration at 4 h [1] was 1970 ng/mL, the concentration at 5 h [1] was 1290 ng/mL and the concentration at 6 h [1] was 628 ng/mL. For the same molecule, the concentration at 7 h [1] was 360 ng/mL, the “% platelet aggregation” value ([2]; 10 mg/kg os, 0 hr) was 83 ± 3.0% and the “% platelet aggregation” value ([2]; 10 mg/kg os, 0.5 hr) was 63 ± 3.7%. The “% platelet aggregation” value ([2]; 10 mg/kg os, 1 hr) was 44 ± 3.2%, the “% platelet aggregation” value ([2]; 10 mg/kg os, 2 hr) was 40 ± 2.9% and the “% platelet aggregation” value ([2]; 10 mg/kg os, 4 hr) was 49 ± 2.7%. The “% platelet aggregation” value ([2]; 20 mg/kg os, 0 hr) was 87 ± 3.2%, the “% platelet aggregation” value ([2]; 20 mg/kg os, 0.5 hr) was 58 ± 5.9% and the “% platelet aggregation” value ([2]; 20 mg/kg os, 1 hr) was 29 ± 4.1%. The “% platelet aggregation” value ([2]; 20 mg/kg os, 2 hr) was 27 ± 3.8%, the “% platelet aggregation” value ([2]; 20 mg/kg os, 4 hr) was 38 ± 3.9% and the solubility in water [3] was “poor soluble in water”. For the same molecule, the “average plasma concentration of dipyridamole” value [4] was 0, the “blood level at which not pharmacologically active” value ([5]; in vivo) was 0.5-1 γ/ml and the “blood level with undesired side effects (cephalea and nausea)” value ([5]; in vivo) was 2000 to 2500 ng/mL. The adsorption ([5]; in words) was “not well adsorbed”, the “variability of blood levels between and within subjects” value ([5]; in words) was “blood levels different from one to another subject and for repeated administrations in the same subject” and the “blood level needed to be active as platelet aggregation inhibiting agent” value ([5]; man) was “higher than 1 mcg/ml”. For the same molecule, the “upper blood level (might show side effects such as cephalea and nausea)” value ([5]; man) was 2.0 to 2.5 µg/mL.
